The text below walks through data of US10064858B2, “Methods and compositions for treating bacterial infections with iron chelators” (THE UNITED STATES OF AMERICA, AS REPRESENTED BY THE …, priority 2011, dated 2018).

One assay has as its system PA PAO1, PA 27853. Kind of assay: Checkerboard assay, chelator with antibiotic (FIC). The assay is classed as cell-based, P. aeruginosa. An excerpt:
Drug interactions were initially evaluated with the “checkerboard” microdilution design, which provided a matrix of all drug combinations assayed in terms of fractions of the previously determined MIC. The checkerboard microdilution design is described in R. J. Tallarida, “Drug Synergism: Its Detection and Applications,” Journal of Pharmacology and Experimental Therapeutics, 865-872 (2001); and in R. L. White, et al., (1996), supra. FIGS. 39A and 39B show the wellplates having different concentrations of iron chelator and antibiotic, as labeled along the x-axis and y-axis.
The checkerboard assay was used to asses other combinations of iron chelators and antibiotics. The fractional inhibitory concentration index (FIC), which was calculated as follows: FIC=(MIC A in combination/MIC A)+(MIC B in combination/MIC B). Interaction was defined as synergistic if the FIC was <1.0, preferably <0.5, no interaction if the FIC was >1.0 and <4.0, and antagonistic if the FIC was >4.0.
The assay was run against the multi-drug resistant bacterial species AB 19606, AB 17978, KP ndm, PA PAO1, PA 27853, EC 35718, and EC 43888. Blank spaces indicate concentrations not tested. […] Against the species PA PAO1 and PA 27853, all the antibiotics except for Ami.

The subject of the next assay is Bioluminescent AB0057. Kind of assay: Bioluminescent AB0057 challenged with iron chelators. The assay is classed as cell-based, Acinetobacter baumannii. Particulars: 100 μm; 4 hours; low iron media. An excerpt: This example studies bioluminescent A. baumannii challenged with iron chelators. AB0057 is a strain of Acinetobacter baumannii available from Robert Bonomo, Case Western Reserve University, Cleveland, Ohio.
As a precursor to conducting this in vitro assay, AB0057 was transformed with a bioluminescent plasmid. The p16Slux plasmid is illustrated in FIG. 38, and further details regarding its development and use are set forth in Christian U. Riedel et al., “Construction of p16Slux, a Novel Vector for Improved Bioluminescent Labeling of Gram-Negative Bacteria,” Appl. Environ. Microbiol. 2007 November; 73(21): 7092-7095.
Bioluminescent AB0057 were grown overnight in LB media and sub-cultured into low iron media in a 96-well plate containing varying concentrations of iron chelators for 4 hours. Bacterial growth was measured by bioluminescence (relative light units). The iron chelators VK28 and DFO were tested along with chelators DIP, ETTA, and EDTA as controls. The chelators were tested a concentrations of 0 μM, […], 3.13 μM, 6.25 μM, 12.5 μM, 25 μM, 50 μM, and 100 μM.

Assay [1] concerns Tetracycline-resistant A. baumannii. Kind of assay: Growth (OD600) with VK28, tetracycline or both. The assay is classed as cell-based. The source says:
Growth was estimated by absorbance at 600 nm at 24 hr. (y-axis).

As to `Cc1c(O)c(=O)ccn1C` [ApoL1, 3-hydroxy-1,2-dimethyl-4(1H)-pyridone], the FIC worked out at 1.25 in the assay with PA PAO1, PA 27853 (PA 27853, in combination with Amikacin); 0.75 with PA PAO1, PA 27853 (PA 27853, in combination with Cefotaxine); 0.75 with PA PAO1, PA 27853 (PA 27853, in combination with Colisitin); 0.75 in the assay on PA PAO1, PA 27853 (PA 27853, in combination with Doxycycline); 0.75 with PA PAO1, PA 27853 (PA 27853, in combination with Rifampin); 0.75 with PA PAO1, PA 27853 (PA PAO1, in combination with Cefotaxine). In addition, the FIC is recorded as 0.75 in the assay with PA PAO1, PA 27853 (PA PAO1, in combination with Colisitin); 0.75 with PA PAO1, PA 27853 (PA PAO1, in combination with Doxycycline); 0.75 in the assay with PA PAO1, PA 27853 (PA PAO1, in combination with Rifampin).
As to `OCCN1CCN(Cc2ccc(O)c3ncccc23)CC1` [VK28, 5-(4-(2-hydroxyethyl)piperazin-1-ylmethyl)-8-hydroxyquinoline], in the assay on Bioluminescent AB0057, the “Bioluminescence (relative light units)” value is listed as “especially surprisingly lower”. The “reduction of bacteria (absorbance at 600 nm at 24 hr)” value in assay [1] (400 μM Vk28 in combination with 16 ug/mL tetracycline) was “the reduction in bacteria was greater than the added reductions from separate administration of tetracycline and VK28”; in assay [1] (single agent: 400 μM Vk28 or 16 ug/mL tetracycline, low-iron M9), “significant reduction in bacteria”.
